Results as given in patent publication US12358925B2, “Targeted ubiquitination degradation BRD4 protein compound, preparation method therefor and application thereof” (CSPC ZHONGQI PHARMACEUTICAL TECHNOLOGY (SHIJIAZHUANG) CO., …, priority 2019, dated 2025).

Assays:
[1] = test system: acute leukemia cell line RS4; 11; test: MTT proliferation assay, RS4;11 cells; assay type: cell-based; conditions: Homo sapiens, 72 h after drug administration
Description: (§1) Cell lines for test: acute leukemia cell line RS4; 11 and multiple myeloma cell line MM.1S
(§2) Test method: MTT (thiazole blue) method, which was also called MTT colorimetry assay, was a method used to detect cell survival and growth. The principle of the assay was that the succinate dehydrogenase in mitochondria of living cells could reduce the exogenous MTT to water-insoluble blue-purple crystal formazan and deposit it in the cells, while dead cells have no such function. Dimethyl sulfoxide (DMSO) could dissolve formazan in cells, and its light absorption value was measured at 550 nm wavelength by enzyme-linked immunoassay, which could indirectly reflect the number of living cells. Within a certain range of cell numbers, the amount of MTT crystal formation is proportional to the number of cells. This method has been widely used in the activity detection of some biologically active factors, large-scale anti-tumor drug screening, cytotoxicity test, and tumor radiosensitivity determination.
(§3) The concentration gradient of the compound was as follows: 0-25.6 pM-128 pM-640 pM-3.2 nm-16 nM-80 nM-400 nM-2 μM-10 μM; (n=3)
(§4) 72 h after drug administration, 20 μl per well of MTT working solution (5 mg/ml) was added, and incubated at 37° C. for 4 h, centrifuged in plate centrifuge at 1000 rpm/min for 5 min. 180 μl of medium was aspirated and 150 μl DMSO was added in RS4; 11 groups; 200 μl of medium was aspirated and 150 μl DMSO was added in MM.1S group; the mixture was shaken and mixed on microwell shaker, and the bottom of the plate was wiped, and the optical density (OD) was measured at 550 nm by microplate reader. The IC50 of the half inhibitory concentration was calculated by LOGIT method.

[2] = test system: multiple myeloma cell line MM.1S; test: MTT proliferation assay, MM.1S cells; assay type: cell-based; conditions: Homo sapiens, MM1.S, 72 h after drug administration
Description: as §1, §2, §3, §4

Cc1sc2c(c1C)C(c1ccc(Cl)cc1)=N[C@@H](CC(=O)Nc1ccc(OCCOCCOCCOCCNc3cccc4c3C(=O)N(C3CCC(=O)NC3=O)C4=O)cc1)c1nnc(C)n1-2 (some centres unmarked) [ARV-825, reference compound]
IC50 [1]: 20 to 100 nM | IC50 [2]: 20 to 100 nM

Cc1sc2c(c1C)C(c1ccc(Cl)cc1)=N[C@@H](CC(=O)NN1CCN(C(=O)CCC(=O)Nc3cccc4c3CN(C3CCC(=O)NC3=O)C4=O)CC1)c1nnc(C)n1-2 (stereo partly drawn) [Example 1, 4-(4-(2-((S)-4-(4-chlorophenyl)-2,3,9-trimethyl-6H-thieno[3,2-f][1,2,4]triazolo[4,3-a][1,4]diaza-6-yl)acetamido)piperazin-1-yl)-N-(2-(2,6-dioxpiperazin-3-yl)-1-oxoisoindolin-4-yl)-4-oxobutanamide]
IC50 [1]: < 20 nM | IC50 [2]: < 20 nM

Cc1sc2c(c1C)C(c1ccc(Cl)cc1)=N[C@@H](CC(=O)NN1CCN(C(=O)CNc3cccc4c3C(=O)N(C3CCC(=O)NC3=O)C4=O)CC1)c1nnc(C)n1-2 (some centres unmarked) [Example 4]
IC50 [1]: < 20 nM | IC50 [2]: < 20 nM

Cc1sc2c(c1C)C(c1ccc(Cl)cc1)=N[C@@H](CC(=O)NN1CCN(C(=O)CCNc3cccc4c3C(=O)N(C3CCC(=O)NC3=O)C4=O)CC1)c1nnc(C)n1-2 (some centres unmarked) [Example 5]
IC50 [1]: < 20 nM | IC50 [2]: < 20 nM

Cc1sc2c(c1C)C(c1ccc(Cl)cc1)=N[C@@H](CC(=O)NN1CCN(C(=O)CCOCCOCCNc3cccc4c3C(=O)N(C3CCC(=O)NC3=O)C4=O)CC1)c1nnc(C)n1-2 (some centres unmarked) [Example 8]
IC50 [1]: 20 to 100 nM | IC50 [2]: < 20 nM

Cc1sc2c(c1C)C(c1ccc(Cl)cc1)=N[C@@H](CC(=O)NN1CCN(C(=O)CCOCCOCCOCCNc3cccc4c3C(=O)N(C3CCC(=O)NC3=O)C4=O)CC1)c1nnc(C)n1-2 (some centres unmarked) [Example 9]
IC50 [1]: < 20 nM | IC50 [2]: 20 to 100 nM

Cc1sc2c(c1C)C(c1ccc(Cl)cc1)=N[C@@H](CC(=O)NN1CCN(C(=O)CNc3cccc4c3CN(C3CCC(=O)NC3=O)C4=O)CC1)c1nnc(C)n1-2 (some centres unmarked) [Example 11]
IC50 [1]: < 20 nM | IC50 [2]: < 20 nM

Cc1sc2c(c1C)C(c1ccc(Cl)cc1)=N[C@@H](CC(=O)NN1CCN(C(=O)CCNc3cccc4c3CN(C3CCC(=O)NC3=O)C4=O)CC1)c1nnc(C)n1-2 (some centres unmarked) [Example 12]
IC50 [1]: < 20 nM | IC50 [2]: < 20 nM

Cc1sc2c(c1C)C(c1ccc(Cl)cc1)=N[C@@H](CC(=O)NN1CCN(C(=O)COc3cccc4c3C(=O)N(C3CCC(=O)NC3=O)C4=O)CC1)c1nnc(C)n1-2 (some centres unmarked) [Example 15]
IC50 [1]: < 20 nM | IC50 [2]: < 20 nM

Cc1sc2c(c1C)C(c1ccc(Cl)cc1)=N[C@@H](CC(=O)N1CCN(NC(=O)CCC(=O)Nc3cccc4c3CN(C3CCC(=O)NC3=O)C4=O)CC1)c1nnc(C)n1-2 (some centres unmarked) [Example 16]
IC50 [1]: < 20 nM | IC50 [2]: < 20 nM

Cc1sc2c(c1C)C(c1ccc(Cl)cc1)=N[C@@H](CC(=O)N1CCN(NC(=O)CNc3cccc4c3C(=O)N(C3CCC(=O)NC3=O)C4=O)CC1)c1nnc(C)n1-2 (some centres unmarked) [Example 19]
IC50 [1]: < 20 nM | IC50 [2]: < 20 nM

Cc1sc2c(c1C)C(c1ccc(Cl)cc1)=N[C@@H](CC(=O)N1CCN(NC(=O)CCNc3cccc4c3C(=O)N(C3CCC(=O)NC3=O)C4=O)CC1)c1nnc(C)n1-2 (some centres unmarked) [Example 20]
IC50 [1]: < 20 nM | IC50 [2]: < 20 nM

Cc1sc2c(c1C)C(c1ccc(Cl)cc1)=N[C@@H](CC(=O)N1CCN(NC(=O)CNc3cccc4c3CN(C3CCC(=O)NC3=O)C4=O)CC1)c1nnc(C)n1-2 (some centres unmarked) [Example 26]
IC50 [1]: 20 to 100 nM | IC50 [2]: 20 to 100 nM

Cc1sc2c(c1C)C(c1ccc(Cl)cc1)=N[C@@H](CC(=O)NNC(=O)CCC(=O)Nc1cccc3c1CN(C1CCC(=O)NC1=O)C3=O)c1nnc(C)n1-2 (some centres unmarked) [Example 31]
IC50 [1]: 20 to 100 nM | IC50 [2]: 20 to 100 nM

Cc1sc2c(c1C)C(c1ccc(Cl)cc1)=N[C@@H](CC(=O)OC(C)(C)C)c1nnc(C)n1-2 [JQ1, tert-butyl(S)-2-(4-(4-chlorophenyl)-2,3,9-trimethyl-6H-thieno[3,2-f][1,2,4]triazolo[4,3-a][1,4]diazepine-6-yl)acetate, reference compound]
IC50 [1]: ≥ 100 nM | IC50 [2]: ≥ 100 nM

Cc1sc2c(c1C)C(c1ccc(Cl)cc1)=N[C@@H](CC(=O)NCCCCNC(=O)COc1cccc3c1C(=O)N(C1CCC(=O)NC1=O)C3=O)c1nnc(C)n1-2 (some centres unmarked) [dBET1, reference compound]
IC50 [1]: ≥ 100 nM | IC50 [2]: ≥ 100 nM
